Reference: patent US8017584B2, “GD3-mimetic peptides” (Otsuka Pharmaceutical Co., Ltd., priority 2000, dated 2011)
Where “and” joins values, the source holds several entries; their conditions need not be identical. Equal values may be shown once.

Columns and labels:
[1] = test system: GD3 antibody 4F6; experiment: ELISA of immobilized phage clones with GD3 antibody 4F6 (Example 2); assay type: binding, mouse; conditions: phage clone immobilized, duplicate lines
Description: (§1) A 0.1M NaHCO3 solution containing each of the phage clones obtained in Example 1 (10^11, 10^10, or 10^9 titer/100 μL) was added to the wells of a 96-well microtiter plate (product of Nunc), for immobilization of the phage clones at room temperature for one hour. The supernatant was removed, then the wells were subjected to blocking by use of a blocking solution ([…]; TBS containing 1% BSA, 0.1% skim milk, and 0.02% Tween 20; pH 7.5) at 37° C. for four hours.
(§2) The supernatant was removed, then GD3 antibody 4F6 (100 μL), serving as a primary antibody, was added to each well for reaction under shaking at room temperature for two hours. After completion of reaction, the supernatant was removed, then the wells were washed six times with a washing solution (400 μL for each well, TBS containing 0.05% Tween 20). Subsequently, a secondary antibody (anti-mouse IgG-HRP, product of Santa Cruz Biotechnology, catalogue No. SC-2031, Lot. No. C089) which was diluted 5,000-fold by use of a blocking solution prepared in advance was added to the wells (100 μL to each well) for reaction under shaking at room temperature for one hour. After completion of reaction, the wells were washed four times with a washing solution (400 μL for each well), then a detection reagent (TMB Microwell; product of KPL, Catalogue No. 50-76-04, Lot. No. WF075) was added to the wells (100 μL to each well), and the mixture was allowed to stand for five minutes at room temperature.
(§3) 1N-Hydrochloric acid (100 μL) was added to each well for stopping the reaction. Absorbance of each well was measured at 450 nm and 620 nm, and “OD450-OD620” was calculated. A Multiscan (product of Labosystems) was used in measurement of absorbance. A well in which phages had not been immobilized served as a blank, and the absorbance of each well was determined by subtracting the blank value from the “as-measured” value.

[2] = test system: Anti-OAcGD3 antibody; experiment: ELISA of immobilized MAP-form peptides with control anti-OAcGD3 antibody; assay type: binding; conditions: MAP form 100 ng/well
Description: (§4) A 0.1M NaHCO3 solution containing a GD3-mimetic peptide of the invention in the above MAP form (100 ng/100 μL) was added to the wells of a 96-well micro-titer plate, for immobilization at room temperature for one hour. Subsequently, in a manner similar to the ELISA method employed in Example 2, binding affinity of the GD3-mimetic peptide to GD3 antibody 4F6 was investigated.
(§5) Anti-GD2 antibody and anti-OAcGD3 antibody (Cerato, E., et al., Hybridoma, 16(4), 307-316 (1997)) were used as controls (these antibodies were kindly provided by from Dr. Portoukalian).

[3] = test system: GD3 antibody 4F6; experiment: ELISA of immobilized MAP-form GD3-mimetic peptides with anti-GD3 antibody (Example 3(3)); assay type: binding, mouse; conditions: for ELISA absorbance, Anti-GD3 antibody: MAP form 100 ng/well
Description: as §1, §2, §3, §4, §5

[4] = test system: T-cell-rich lymphocytes / IL-2-dependent CTLL2 cells; experiment: Cell response test: IL-2 activity (3H thymidine up-take of CTLL2 cells) in supernatant of spleen cells of mice immunized with R4 peptide (R4-KLH); assay type: cell-based, mouse; conditions: for 3H Thymidine up-take into CTLL2 cells, mean ± SE (4 wells): mice immunized with R4 peptide
Description: Using a fusion peptide R4-KLH obtained in Example 3 (4) between GD3R4 and KLH or a MAP form fusion peptide R4MAP-KLH created between GD3R4 and KLH, immunization was performed as described in (1) above.
Briefly, an emulsion mixed with an adjuvant (1:1, by volume) was administered to each member of groups of mice, each group consisting of 3 mice (CD-1), in an amount of 100 μL/mouse (for one administration (ip), peptide 30 μg/mouse) for immunization. In the case of R4-KLH, administration was performed every one week for one month, and subsequently every two weeks for one month; and in the case of R4MAP-KLH, every one week for 2 months. In any case, 4 days after the final immunization, blood was collected to thereby prepare antiserum samples.
(§6) The spleen aseptically removed from each of the above-immunized mice was minced in a 10% FCS-supplemented RPMI 1640 medium. By use of a nylon wool column, T-cell-rich lymphocytes were prepared and the cells were counted. The above medium containing the cells in an amount of 10^5 cells per 150 μL was added to each of the wells of a culture plate. PHA was added so as to attain a final concentration of 1 μg/mL. A peptide of the present invention or any of different gangliosides in PBS was added, and the mixture was incubated for 96 hours. A supernatant (100 μL) was obtained from each well. The IL-2 activity of the supernatant was determined through use of IL-2-dependent mouse cells, CTLL2. Briefly, the supernatant (100 μL) diluted 2 to 50-fold with a medium was added to the wells in an amount of 10^4 CTLL2 cells/well, followed by incubation at 37° C. for 48 hours. Subsequently, 3H-thymidine (0.5 μCi) was added to each well, followed by incubation for 6 hours. CTLL2 cells were recovered on a paper filter and counted for 3H.

[5] = test system: T-cell-rich lymphocytes / IL-2-dependent CTLL2 cells; experiment: Cell response test: IL-2 activity (3H thymidine up-take of CTLL2 cells) in supernatant of spleen cells of mice immunized with GD3; assay type: cell-based, mouse; conditions: for 3H Thymidine up-take into CTLL2 cells, mean ± SE (4 wells): mice immunized with GD3
Description: Similar to the case of immunization with R4-KLH, antiserum samples were also prepared through immunization with GD3 (30 μg).
as §6

[6] = test system: Anti-GD2 antibody; experiment: ELISA of immobilized MAP-form peptides with control anti-GD2 antibody; assay type: binding; conditions: MAP form 100 ng/well
Description: as §4, §5

[7] = stimulant 1 μg/ml, supernatant dilution 1/20
[8] = stimulant 1 μg/ml, supernatant dilution 1/50
[9] = stimulant 1 μg/ml, supernatant dilution ½
[10] = stimulant 1 μg/ml, supernatant dilution ⅕
[11] = stimulant 2 μg/ml, supernatant dilution 1/20
[12] = stimulant 2 μg/ml, supernatant dilution 1/50
[13] = stimulant 2 μg/ml, supernatant dilution ½
[14] = stimulant 2 μg/ml, supernatant dilution ⅕
[15] = stimulant 5 μg/ml, supernatant dilution 1/20
[16] = stimulant 5 μg/ml, supernatant dilution 1/50
[17] = stimulant 5 μg/ml, supernatant dilution ½
[18] = stimulant 5 μg/ml, supernatant dilution ⅕

GLAPPDYAERFELLS [GD3R3, tested as phage clone, MAP form or peptide]
absorbance OD450-OD620, binding to GD3 antibody 4F6 ([1]; 10^9 titer/well): 0.05 and 0.086
absorbance OD450-OD620, binding to GD3 antibody 4F6 ([1]; 10^11 titer/well): 0.094 and 0.108
ELISA absorbance, Anti-OAcGD3 antibody ([2]; Serum % 12.50%): 0.031
ELISA absorbance, Anti-OAcGD3 antibody ([2]; Serum % 25%): 0.026
ELISA absorbance, Anti-OAcGD3 antibody ([2]; Serum % 50%): 0.031
ELISA absorbance, Anti-OAcGD3 antibody ([2]; Serum % 100%): 0.044
binding to the anti-GD3 antibody [3]: stronger bonding to the anti-GD3 antibody
ELISA absorbance, Anti-GD3 antibody ([3]; Serum % 12.50%): 0.176
ELISA absorbance, Anti-GD3 antibody ([3]; Serum % 25%): 0.237
ELISA absorbance, Anti-GD3 antibody ([3]; Serum % 50%): 0.357
ELISA absorbance, Anti-GD3 antibody ([3]; Serum % 100%): 0.483
activation of T cells ([4]; R4-KLH-immunized mice): T cells have been confirmed to have activated
3H Thymidine up-take into CTLL2 cells, mean ± SE (4 wells) [4, 7]: 1491 ± 364
3H Thymidine up-take into CTLL2 cells, mean ± SE (4 wells) [4, 8]: 682 ± 120
3H Thymidine up-take into CTLL2 cells, mean ± SE (4 wells) [4, 9]: 5577 ± 1063
3H Thymidine up-take into CTLL2 cells, mean ± SE (4 wells) [4, 10]: 2986 ± 327
3H Thymidine up-take into CTLL2 cells, mean ± SE (4 wells) [4, 11]: 1527 ± 337
3H Thymidine up-take into CTLL2 cells, mean ± SE (4 wells) [4, 12]: 736 ± 137
3H Thymidine up-take into CTLL2 cells, mean ± SE (4 wells) [4, 13]: 6351 ± 1314
3H Thymidine up-take into CTLL2 cells, mean ± SE (4 wells) [4, 14]: 3184 ± 439
3H Thymidine up-take into CTLL2 cells, mean ± SE (4 wells) [4, 15]: 1684 ± 375
3H Thymidine up-take into CTLL2 cells, mean ± SE (4 wells) [4, 16]: 812 ± 151
3H Thymidine up-take into CTLL2 cells, mean ± SE (4 wells) [4, 17]: 7898 ± 1496
3H Thymidine up-take into CTLL2 cells, mean ± SE (4 wells) [4, 18]: 3652 ± 681
IL-2 production by T-cell-rich lymphocytes ([5]; lymphocytes from GD3-immunized mouse): production of IL-2 has been confirmed
3H Thymidine up-take into CTLL2 cells, mean ± SE (4 wells) [5, 7]: 1153 ± 246
3H Thymidine up-take into CTLL2 cells, mean ± SE (4 wells) [5, 8]: 571 ± 104
3H Thymidine up-take into CTLL2 cells, mean ± SE (4 wells) [5, 9]: 4066 ± 853
3H Thymidine up-take into CTLL2 cells, mean ± SE (4 wells) [5, 10]: 2654 ± 486
3H Thymidine up-take into CTLL2 cells, mean ± SE (4 wells) [5, 11]: 1540 ± 467
3H Thymidine up-take into CTLL2 cells, mean ± SE (4 wells) [5, 12]: 749 ± 118
3H Thymidine up-take into CTLL2 cells, mean ± SE (4 wells) [5, 13]: 5791 ± 1154
3H Thymidine up-take into CTLL2 cells, mean ± SE (4 wells) [5, 14]: 3243 ± 634
3H Thymidine up-take into CTLL2 cells, mean ± SE (4 wells) [5, 15]: 1566 ± 328
3H Thymidine up-take into CTLL2 cells, mean ± SE (4 wells) [5, 16]: 761 ± 102
3H Thymidine up-take into CTLL2 cells, mean ± SE (4 wells) [5, 17]: 7536 ± 1247
3H Thymidine up-take into CTLL2 cells, mean ± SE (4 wells) [5, 18]: 3528 ± 543
ELISA absorbance, Anti-GD2 antibody ([6]; Serum % 12.50%): 0.077
ELISA absorbance, Anti-GD2 antibody ([6]; Serum % 25%): 0.118
ELISA absorbance, Anti-GD2 antibody ([6]; Serum % 50%): 0.036
ELISA absorbance, Anti-GD2 antibody ([6]; Serum % 100%): 0.191
